Measured values reported in patent US8071625B2, “Certain chemical entities, compositions, and methods” (Cytokinetics, Inc., priority 2006, dated 2011).

Target: T1, crosslinked smooth muscle actomyosin (chicken gizzard smooth muscle myosin subfragment-1 crosslinked to cardiac or skeletal actin) (Gallus gallus, UniProt P10587)
T1 construct: chicken gizzard smooth muscle myosin subfragment-1; from tissue; host or cells: chicken gizzard
Assay: Lead optimization pyruvate kinase/horseradish peroxidase/pyruvate oxidase-coupled ATPase assay (compound dose response)
Type: biochemical
Settings: read-out: IC50 Arithmetic Mean
How it was run: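 IC50 is the midpoint of a 4-parameter dose–response fit of Amplex Red fluorescence (480/615 nm). Buffer was 12 mM potassium PIPES pH 7.00 at 22 °C with 100 mM KCl, 2 mM MgCl2, 0.15 mM ATP and 2 mM phosphate, with PK/pyruvate oxidase/HRP coupling. Enzyme: smooth muscle myosin S1 crosslinked to cardiac or skeletal actin, dosed empirically by activity.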

Molecule	IC50 [µM]
methyl (3S)-3-amino-4-(4-{N-[(2-chlorophenyl)methyl]carbamoyl}-4-{[N-(4-ethylphenyl)carbamoyloxy]methyl}piperidyl)-4-oxobutanoate	1.12
Cc1c(F)cccc1CNC(=O)C1(COC(=O)Nc2ccc(C(F)(F)F)cc2)CCN(C(=O)CNC(=O)OC(C)(C)C)CC1 [[(1-{2-[(tert-butoxy)carbonylamino]acetyl}-4-{N-[(3-fluoro-2-methylphenyl)methyl]carbamoyl}(4-piperidyl))methoxy]-N-[4-(trifluoromethyl)phenyl]carboxamide]	3.18
CCc1ccc(NC(=O)OCC2(C(=O)NCc3ccccc3Cl)CCN(CCO)CC2)cc1 [N-[(2-chlorophenyl)methyl](4-{[N-(4-ethylphenyl)carbamoyloxy]methyl}-1-(2-hydroxyethyl)(4-piperidyl))carboxamide]	4.04
CCc1ccc(NC(=O)OCC2(C(=O)NCc3cccnc3C)CCN(C(=O)CN)CC2)cc1 [[(1-(2-aminoacetyl)-4-{N-[(2-methyl(3-pyridyl))methyl]carbamoyl}(4-piperidyl))methoxy]-N-(4-ethylphenyl)carboxamide]	9.44
CCc1ccc(NC(=O)OCC2(C(=O)NCc3ccccc3)CCN(C(=O)CNC(=O)OC(C)(C)C)CC2)cc1 [(tert-butoxy)-N-[2-(4-{[N-(4-ethylphenyl)carbamoyloxy]methyl}-4-[N-benzylcarbamoyl]piperidyl)-2-oxoethyl]carboxamide]	11.1
CCc1ccc(NC(=O)OCCN(C)C(=O)C(O)Cc2ccccc2C(F)(F)F)cc1 (stereo not drawn) [N-{2-[N-(4-ethylphenyl)carbamoyloxy]ethyl}-2-hydroxy-N-methyl-3-[2-(trifluoromethyl)phenyl]propanamide]	17.5

These reach a lower IC50. Values come first.

IC50 [µM]	Molecule
0.896	CCc1ccc(NC(=O)OCCN(CCNC(=O)CN)C(=O)NCc2ccccc2Cl)cc1 [2-amino-N-[2-({[(2-chlorophenyl)methyl]amino}-N-{2-[N-(4-ethylphenyl)carbamoyloxy]ethyl}carbonylamino)ethyl]acetamide]
0.158	CCc1ccc(NC(=O)OCC2(C(=O)NCc3ccc(F)cc3Cl)CCN(C(=O)CN)CC2)cc1 [[(1-(2-aminoacetyl)-4-{N-[(2-chloro-4-fluorophenyl)methyl]carbamoyl}(4-piperidyl))methoxy]-N-(4-ethylphenyl)carboxamide]
0.086	CCc1ccc(NC(=O)OCC2(C(=O)NCc3ccccc3C(F)(F)F)CCN(C(=O)CN)CC2)cc1 [{[1-(2-aminoacetyl)-4-(N-{[2-(trifluoromethyl)phenyl]methyl}carbamoyl)(4-piperidyl)]methoxy}-N-(4-ethylphenyl)carboxamide]
